For two molecules, inhibition results are on record in US5767291A, “Phenyl heterocycles as cox-2 inhibitors” (Merck Frosst Canada, Inc., priority 1996, dated 1998).

In assay [1] the target is T1, cyclooxygenase-1 (COX-1) (Homo sapiens, UniProt P23219).
T1 construct: human U-937 cells (which specifically express cyclooxygenase-1); endogenous in cells; host or cells: human U-937 cells (whole cells, and microsomes prepared from them)
Nature of the assay: Whole cell cyclooxygenase assay, COX-1 (PGE2 synthesis in response to arachidonic acid, radioimmunoassay), human U-937 cells. It counts as cell-based. Particulars: read-out: Whole Cells COX-1 % inhib. The protocol:
(§1) Compounds were tested as inhibitors of cyclooxygenase activity in whole cell and microsomal cyclooxygenase assays. Both of these assays measured prostaglandin E2 (PGE2) synthesis in response to arachidonic acid, using a radioimmunoassay. Cells used for whole cell assays, and from which microsomes were prepared for microsomal assays, were human osteosarcoma 143 cells (which specifically express cyclooxygenase-2) and human U-937 cells (which specifically express cyclooxygenase-1). In these assays, 100% activity is defined as the difference between prostaglandin E2 synthesis in the absence and presence of arachidonate addition.

Assay [2] addresses T1, cyclooxygenase-1 (COX-1). Nature of the assay: Microsomal cyclooxygenase assay, COX-1 (PGE2 synthesis, microsomes of human U-937 cells). The settings on record: read-out: Microsomes COX-1 % inhib. The class given is biochemical. The protocol:
as §1

In assay [3] the target is T2, cyclooxygenase-2 (COX-2) (Homo sapiens, UniProt P35354).
T2 construct: human osteosarcoma 143 cells (which specifically express cyclooxygenase-2); endogenous in cells; host or cells: human osteosarcoma 143 cells (whole cells, and microsomes prepared from them)
T2 sequence (P35354 18-604): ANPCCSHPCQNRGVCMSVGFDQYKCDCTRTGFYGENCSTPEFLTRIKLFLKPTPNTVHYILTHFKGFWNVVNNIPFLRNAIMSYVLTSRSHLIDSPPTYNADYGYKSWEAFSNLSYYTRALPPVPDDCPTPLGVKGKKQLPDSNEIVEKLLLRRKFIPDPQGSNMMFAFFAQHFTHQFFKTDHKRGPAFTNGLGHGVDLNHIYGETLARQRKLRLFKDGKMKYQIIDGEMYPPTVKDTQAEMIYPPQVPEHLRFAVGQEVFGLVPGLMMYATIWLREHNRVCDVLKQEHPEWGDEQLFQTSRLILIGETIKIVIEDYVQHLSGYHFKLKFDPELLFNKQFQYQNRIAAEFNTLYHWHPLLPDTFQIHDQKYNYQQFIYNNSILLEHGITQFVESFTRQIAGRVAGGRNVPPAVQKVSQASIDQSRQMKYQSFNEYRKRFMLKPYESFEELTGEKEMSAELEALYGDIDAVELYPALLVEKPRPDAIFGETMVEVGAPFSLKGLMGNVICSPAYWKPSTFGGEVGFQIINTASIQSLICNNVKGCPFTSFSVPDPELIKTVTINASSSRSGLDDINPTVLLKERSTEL
The experiment in a line: Whole cell cyclooxygenase assay, COX-2 (PGE2 synthesis in response to arachidonic acid, radioimmunoassay), human osteosarcoma 143 cells. The class given is cell-based. Particulars: read-out: Whole Cells COX-2 % inhib. The protocol:
as §1

The target in assay [4] is T2, cyclooxygenase-2 (COX-2). The experiment in a line: Microsomal cyclooxygenase assay, COX-2 (PGE2 synthesis, microsomes of human osteosarcoma 143 cells). The class given is biochemical. Particulars: read-out: Microsomes COX-2 % inhib. The protocol:
as §1

T1 sequence (P23219 24-599): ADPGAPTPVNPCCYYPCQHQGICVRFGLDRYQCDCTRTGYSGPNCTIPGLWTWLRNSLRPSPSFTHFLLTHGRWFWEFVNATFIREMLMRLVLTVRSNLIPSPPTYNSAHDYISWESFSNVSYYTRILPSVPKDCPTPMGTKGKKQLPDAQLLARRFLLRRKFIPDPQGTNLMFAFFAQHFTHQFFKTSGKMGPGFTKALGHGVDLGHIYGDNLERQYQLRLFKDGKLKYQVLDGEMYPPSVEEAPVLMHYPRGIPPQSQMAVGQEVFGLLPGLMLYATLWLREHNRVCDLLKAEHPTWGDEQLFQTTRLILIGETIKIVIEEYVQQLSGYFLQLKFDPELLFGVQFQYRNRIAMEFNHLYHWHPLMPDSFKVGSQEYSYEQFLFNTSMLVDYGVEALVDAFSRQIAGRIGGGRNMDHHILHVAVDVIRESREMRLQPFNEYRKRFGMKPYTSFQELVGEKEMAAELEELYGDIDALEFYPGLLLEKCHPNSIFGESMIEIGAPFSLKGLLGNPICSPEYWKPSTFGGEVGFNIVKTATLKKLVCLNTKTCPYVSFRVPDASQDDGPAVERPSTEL

Turning to `CS(=O)(=O)c1ccc(C2=C(c3ccc(F)cc3)C(=O)CC2)cc1` [Example 7, 2-(4-Fluorophenyl)-3-(4-(methylsulfonyl)phenyl)-2-cyclopenten-1-one], the inhibition at 0.1 µM in assay [1] (100 nM) came out at 0%; in assay [3] (100 nM) it was 74%. Also, the inhibition at 1 µM was determined as 16% in assay [2] (1000 nM) and 58% in assay [4] (1000 nM).

Take `CS(=O)(=O)c1ccc(-c2cc(C(=O)O)sc2-c2ccc(C(=O)O)cc2)cc1` [Example 5, 5-(4-Carboxyphenyl)-4-(4-(methylsulfonyl)phenyl)thiophene-2-carboxylic acid]: the inhibition at 0.01 µM in assay [1] (10 nM) amounted to 0%; in assay [2] (10 nM), 31%; in assay [3] (10 nM), 0%; in assay [4] (10 nM), 43%.
